Marks after values point to notes of the source that are not given here.
Key:
Assay type in all cases: in vivo
C57BL/KsBom-db/db mice [1] = assay: Oral glucose tolerance test (OGTT) on day 10 in db/db mice; details: for Blood glucose profile, 90 min post glucose load / Blood glucose % change compared to control, 90 min post glucose load: OGTT day 10, 90 min; for Blood glucose profile, 120 min post glucose load / Blood glucose % change compared to control, 120 min post glucose load: OGTT day 10, 120 min; for Blood glucose profile, −30 min post glucose load / Blood glucose % change compared to control, −30 min post glucose load: OGTT day 10, −30 min; for Comparative antihyperglycemic activity: Day 10 (OGTT): in % (unit assumed)
Description: (§1) C57BL/KsBom-db/db mice (12-18 weeks old), weighing around 35+g bred in the animal house of CDRI, Lucknow, were used in the present experiments. The mice were housed in groups of 3 to 5 (same sex) in a room controlled for temperature (23±2.0 ° C.) and 12/12 hours light/dark cycle (lights on at 6.00 am). Body weight of each animal was measured daily from day 1 to day 10 of the experiment. All animals had free access to fresh water and normal pellet diet except on the day of the postprandial protocol (day 6) and during the overnight fast before the OGTT on day 10. The animals always had access to water during experimental periods. Blood glucose was checked every morning up till day 10. On day 10 an oral glucose tolerance test (OGTT) was performed after an overnight fasting. Blood glucose was measured at −30.0 min and test compounds were administered. The blood glucose was again measured at 0 min just post treatment and at this juncture glucose solution was given at a dose of 3 gm/kg to all the groups including the vehicle treated group. The blood glucose levels were checked at 30 min, 60 min, 90 min and 120 min post glucose administration. The data was analyzed for its significance on Prism software.

C57BL/KsBom-db/db mice [2] = assay: Serum lipid profile of treated db/db mice (antidyslipidemic activity); details: 25 mg/kg
Description: as §1

C57BL/KsBom-db/db mice [3] = assay: as above
[4] = db/db mice, 10 mg/kg, statistically insignificant
[5] = db/db mice, test dose 10 mg/kg, in %
[6] = db/db mice, test dose 25 mg/kg, in %

Question: `CC(C)(C)NC[C@H](O)COc1ccc2c(=O)cc(-c3cc(OCc4ccccc4)cc(OCc4ccccc4)c3)oc2c1` [S-002-853 (S), (S)-(+)-7-(3-tert-Butylamino-2-hydroxypropoxy)-3′,5′-dibenzyloxyflavone] was tested. Which “Blood glucose profile, 90 min post glucose load” value (C57BL/KsBom-db/db mice [1]; 10 mg/kg) did it give?
Answer: The value was 12.1 ± 3.81 mM.

Question: What about the “Blood glucose % change compared to control, 90 min post glucose load” value (C57BL/KsBom-db/db mice [1]; 10 mg/kg, vs sham) of the same compound?
Answer: Its value is −26.9%.

Question: What about the “Blood glucose profile, 120 min post glucose load” value (C57BL/KsBom-db/db mice [1]; 10 mg/kg) of the same compound?
Answer: Its value is 9.23 ± 3.10 mM.

Question: And the “Blood glucose % change compared to control, 120 min post glucose load” value (C57BL/KsBom-db/db mice [1]; 10 mg/kg, vs sham)?
Answer: The value was −11.7%.

Question: What about the “Blood glucose profile, −30 min post glucose load” value (C57BL/KsBom-db/db mice [1]; 10 mg/kg) of the same compound?
Answer: Its value is 8.37 ± 2.98 mM.

Question: What about the “Blood glucose % change compared to control, −30 min post glucose load” value (C57BL/KsBom-db/db mice [1]; 10 mg/kg, vs sham) of the same compound?
Answer: The value was −23.9%.

Question: And the “effect of 10 days treatment on glucose tolerance” value (C57BL/KsBom-db/db mice [1]; 10 mg/kg, not statistically significant)?
Answer: Its value is “around 27.6%”.

Question: What about the “Blood glucose profile, 0 min post glucose load” value (C57BL/KsBom-db/db mice [1]; 25 mg/kg, OGTT day 10, 0 min) of the same compound?
Answer: Its value is 4.81 ± 0.35 mM.

Question: What about the “Blood glucose % change compared to control, 0 min post glucose load” value (C57BL/KsBom-db/db mice [1]; 25 mg/kg, OGTT day 10, 0 min, vs sham) of the same compound?
Answer: The value was −41.8%.

Question: And the “Blood glucose profile, 30 min post glucose load” value (C57BL/KsBom-db/db mice [1]; 25 mg/kg, OGTT day 10, 30 min)?
Answer: Its value is 17.8 ± 1.24 mM.

Question: And the “Blood glucose % change compared to control, 30 min post glucose load” value (C57BL/KsBom-db/db mice [1]; 25 mg/kg, OGTT day 10, 30 min, vs sham)?
Answer: Its value is −38.6%.

Question: What about the “Blood glucose profile, 60 min post glucose load” value (C57BL/KsBom-db/db mice [1]; 25 mg/kg, OGTT day 10, 60 min) of the same compound?
Answer: Its value is 16.3 ± 1.82 mM.

Question: What about the “Blood glucose % change compared to control, 60 min post glucose load” value (C57BL/KsBom-db/db mice [1]; 25 mg/kg, OGTT day 10, 60 min, vs sham) of the same compound?
Answer: Its value is −48.3%.

Question: What about the “Blood glucose profile, 90 min post glucose load” value (C57BL/KsBom-db/db mice [1]; 25 mg/kg) of the same compound?
Answer: Its value is 13.0 ± 1.66 mM.

Question: And the “Blood glucose % change compared to control, 90 min post glucose load” value (C57BL/KsBom-db/db mice [1]; 25 mg/kg, vs sham)?
Answer: The value was −45.5%.

Question: And the “Blood glucose profile, 120 min post glucose load” value (C57BL/KsBom-db/db mice [1]; 25 mg/kg)?
Answer: Its value is 8.83 ± 0.72 mM.

Question: What about the “Blood glucose % change compared to control, 120 min post glucose load” value (C57BL/KsBom-db/db mice [1]; 25 mg/kg, vs sham) of the same compound?
Answer: Its value is −58.2%.

Question: And the “Blood glucose profile, −30 min post glucose load” value (C57BL/KsBom-db/db mice [1]; 25 mg/kg)?
Answer: The value was 4.57 ± 0.30 mM.

Question: And the “Blood glucose % change compared to control, −30 min post glucose load” value (C57BL/KsBom-db/db mice [1]; 25 mg/kg, vs sham)?
Answer: The value was −43.5%.

Question: What about the “effect of 10 days treatment on glucose tolerance (overall improvement in OGTT)” value (C57BL/KsBom-db/db mice [1]; 25 mg/kg, vs sham) of the same compound?
Answer: Its value is “around 45.3%”.

Question: What about the “Comparative antihyperglycemic activity: Day 10 (OGTT)” value (C57BL/KsBom-db/db mice [1]; test dose 10 mg/kg) of the same compound?
Answer: Its value is 27.6*.

Question: And the “Comparative antihyperglycemic activity: Day 10 (OGTT)” value (C57BL/KsBom-db/db mice [1]; test dose 25 mg/kg)?
Answer: Its value is 45.3**.

Question: What about the “Serum lipid profile: Cholesterol” value (C57BL/KsBom-db/db mice [2]) of the same compound?
Answer: The value was 185 ± 51.4 mg/dL.

Question: And the “Serum lipid profile: HDL-Chol” value (C57BL/KsBom-db/db mice [2])?
Answer: Its value is 49.5 ± 8.36 mg/dL.

Question: And the “Serum lipid profile: Triglycerides” value (C57BL/KsBom-db/db mice [2])?
Answer: Its value is 115 ± 2.82 mg/dL.

Question: And the “Cholesterol % change compared to control” value (C57BL/KsBom-db/db mice [2]; vs sham)?
Answer: Its value is −21.8%.

Question: What about the “HDL-Chol % change compared to control” value (C57BL/KsBom-db/db mice [2]; vs sham) of the same compound?
Answer: The value was “+33.2%”.

Question: And the “Triglycerides % change compared to control” value (C57BL/KsBom-db/db mice [2]; vs sham)?
Answer: Its value is −14.5%.

Question: And the “enhancement of HDL-C as compared to the racemic compound” value (C57BL/KsBom-db/db mice [3]; 25 mg/kg body weight)?
Answer: The value was “more than two folds”.

Question: What about the “Serum lipid profile: Cholesterol” value (C57BL/KsBom-db/db mice [3]; db/db mice, 10 mg/kg) of the same compound?
Answer: The value was 87.5 ± 3.00 mg/dL.

Question: And the “Serum lipid profile: HDL-Chol” value (C57BL/KsBom-db/db mice [3]; db/db mice, 10 mg/kg)?
Answer: The value was 66.4 ± 2.87 mg/dL.

Question: And the “Serum lipid profile: Triglycerides” value (C57BL/KsBom-db/db mice [3]; db/db mice, 10 mg/kg)?
Answer: Its value is 110 ± 4.08 mg/dL.

Question: And the “Cholesterol % change compared to control” value (C57BL/KsBom-db/db mice [3]; db/db mice, 10 mg/kg, vs sham)?
Answer: The value was −16.3%.

Question: What about the “HDL-Chol % change compared to control” value (C57BL/KsBom-db/db mice [3]; db/db mice, 10 mg/kg, vs sham) of the same compound?
Answer: Its value is “+17.4%”.

Question: What about the “Triglycerides % change compared to control” value (C57BL/KsBom-db/db mice [3]; db/db mice, 10 mg/kg, vs sham) of the same compound?
Answer: Its value is −17.9%.

Question: And the “elevation in HDL-cholesterol level than control” value (C57BL/KsBom-db/db mice [3]; [4])?
Answer: Its value is “+17.4%”.

Question: And the “lowering of serum cholesterol” value (C57BL/KsBom-db/db mice [3]; [4])?
Answer: The value was “around 16.3%”.

Question: And the “lowering of serum triglycerides” value (C57BL/KsBom-db/db mice [3]; [4])?
Answer: Its value is about 17.9%.

Question: And the “decrease in LDL-cholesterol level” value (C57BL/KsBom-db/db mice [3]; db/db mice, 25 mg/kg)?
Answer: Its value is “around 29.4%”.

Question: What about the “elevation in HDL-cholesterol level than control” value (C57BL/KsBom-db/db mice [3]; db/db mice, 25 mg/kg) of the same compound?
Answer: The value was 33.2%.

Question: And the “lowering of serum cholesterol” value (C57BL/KsBom-db/db mice [3]; db/db mice, 25 mg/kg)?
Answer: The value was “around 21.8%”.

Question: And the “lowering of serum triglycerides” value (C57BL/KsBom-db/db mice [3]; db/db mice, 25 mg/kg)?
Answer: Its value is about 14.5%.

Question: And the “Comparative antihyperlipidemic activity: HDL-C” value (C57BL/KsBom-db/db mice [3]; db/db mice, test dose 10 mg/kg)?
Answer: The value was “+17.4^ns”.

Question: What about the “Comparative antihyperlipidemic activity: T-Chol” value (C57BL/KsBom-db/db mice [3]; [5]) of the same compound?
Answer: Its value is 16.3*.

Question: What about the “Comparative antihyperlipidemic activity: TG” value (C57BL/KsBom-db/db mice [3]; [5]) of the same compound?
Answer: Its value is 17.9*.

Question: And the “Comparative antihyperlipidemic activity: HDL-C” value (C57BL/KsBom-db/db mice [3]; [6])?
Answer: The value was “+33.2*”.

Question: What about the “Comparative antihyperlipidemic activity: T-Chol” value (C57BL/KsBom-db/db mice [3]; [6]) of the same compound?
Answer: The value was 27.8*.

Question: And the “Comparative antihyperlipidemic activity: TG” value (C57BL/KsBom-db/db mice [3]; [6])?
Answer: The value was 14.5**.
